This is an account of results in ChEMBL document CHEMBL5321227, “Lysosome-targeting phenalenones as efficient type I/II photosensitizers for anticancer photodynamic therapy” (Eur J Med Chem, 2023).

Data set [1] in a line: Induction of singlet oxygen production in ethanol assessed as singlet oxygen quantum yield at 410nm under photoirradiation with 550nm and 10 mW/cm^2 LED light for 10 to 80 secs by DPBF based microplate reader analysis. To be noted: time 10-80 sec. It is filed as functional.
Data set [2] in a line: Drug metabolism in carboxylesterase (unknown origin) assessed as formation of active photosensitizer 6-amino-5-iodo-1H-phenalen-1-one at 10 uM under by LC-MS/MS analysis assay. It is filed as ADME. The note with it: human.
Data set [3] can be described thus: Stability of compound in H2O2 at 10 uM incubated for 30 mins by fluorescence assay. The format is physicochemical. To be noted: 0.5 h.
Data set [4] in a line: Drug metabolism in mouse 4T1 cells assessed as increase in carboxylesterase mediated 6-amino-5-iodo-1H-phenalen-1-one release at 5 uM incubated for 2 hrs by confocal laser scanning microscopy. It is filed as ADME, cell-based. The note with it: 4t1, 2 h.
A further data set deals with MDA-MB-231. The data set can be described thus: Anticancer activity against human MDA-MB-231 cells assessed as reduction in cell viability preincubated for 2 hrs followed by photoirradiation with 500 to 700nm and 12 J/cm^2 LED light for 24 hrs by CCK-8 assay. It is filed as functional, cell-based. The note with it: MDA-MB-231, light or radiation study.
The test system of data set [5] is 4T1. The data set can be described thus: Anticancer activity against mouse 4T1 cells assessed as fold increase in gamma-H2A.X protein expression at 1 uM preincubated for 2 hrs followed by photoirradiation with 500 to 700nm and 12 J/cm^2 LED light and measured after 24 hrs by Western blot analysis relative to control. The format is functional. The note with it: time 26 hrs. (In general: In western blotting, separated proteins are transferred to a membrane and probed.)

Data set [6] can be described thus: Drug uptake in heart of BALB/c mouse xenografted with mouse 4T1 cells at 5 mg/kg,IT(Intratumoral) and measured after 6 hrs by fluorescence imaging analysis. To be noted: in vivo, other. It is filed as ADME, organism-based.
For data set [7], the system named is 4T1. The experiment in a line: Antitumor activity against mouse 4T1 cells xenografted in BALB/c mouse assessed as tumor growth inhibition at 5 mg/kg,IT(Intratumoral) for 14 days followed by photoirradiation with 500 to 700nm light (0.5 W) for 6 hrs. The format is functional, organism-based. The note with it: time 14.25 day.
Data set [8] is described as follows: Toxicity in BALB/c mouse xenografted with mouse 4T1 cells assessed as body weight change at 5 mg/kg,IT(Intratumoral) for 14 days. The format is organism-based. To be noted: in vivo, other, 336 h, time 14 day.
A short description of data set [9]: Toxicity in BALB/c mouse xenografted with mouse 4T1 cells assessed as tissue destruction with large spaces in heart at 5 mg/kg,IT(Intratumoral) for 14 days followed by photoirradiation with 500 to 700nm light (0.5 W) for 6 hrs by Hematoxylin and Eosin staining based microscopy. It is filed as organism-based. The note with it: in vivo, other, 342 h, time 14.25 day.

Data set [10] in a line: Toxicity in BALB/c mouse xenografted with mouse 4T1 cells assessed as histopathological lesion in tumor at 5 mg/kg,IT(Intratumoral) for 14 days by Hematoxylin and Eosin staining based microscopy. It is filed as organism-based. The note with it: in vivo, other, 336 h, time 14 day.
Data set [11] can be described thus: Toxicity in BALB/c mouse xenografted with mouse 4T1 cells assessed as histopathological lesion in liver at 5 mg/kg,IT(Intratumoral) for 14 days by Hematoxylin and Eosin staining based microscopy. The note with it: in vivo, other, 336 h, time 14 day. The format is organism-based.
A short description of data set [12]: Toxicity in BALB/c mouse xenografted with mouse 4T1 cells assessed as histopathological lesion in spleen at 5 mg/kg,IT(Intratumoral) for 14 days by Hematoxylin and Eosin staining based microscopy. The note with it: in vivo, other, 336 h, time 14 day. The format is organism-based.

Each structure is given as a SMILES string. Calls of active or inactive are those of the source. The calls are words filed in the database; no cut-off is given here.

Regarding `O=C(CCl)Nc1c(I)cc2c3c(cccc13)C(=O)C=C2`, the Activity in data set [1] is 0.09; in [8], “Toxic”; in [9] it was “Toxic”; in data set [10], “Non-Toxic”; in [11], “Non-Toxic”; in data set [12], “Non-Toxic”. Further, the Drug metabolism entry in data set [2] and in [4] was “Metabolite_Detected” each time. Also, in data set [3], the Stability entry is on record as “Stable”. In addition, in the data set with MDA-MB-231, the IC50 came out at 1.59 µM. Also, the “fold change (FC)” value with 4T1 [5] amounted to 2.12. For the same compound, the Drug uptake entry in data set [6] is “Not Active”. The outcome in the data set on 4T1 [7] was Active.

By IC50 is commonly meant the concentration that gives 50% inhibition.
